Data taken from the supplement of paper PMC9663587.

Legend:
[1] = compound: CCc1cnn2c(NCc3ccc[n+]([O-])c3)cc(N3CCCC[C@H]3CCO)nc12; experiment: GR value, 72 h; higher = faster growth (1 = untreated, <0 = killing);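 further: breast cancer and non-malignant breast epithelial lines, nine half-log doses, viable cells counted by Hoechst and LIVE/DEAD dye imaging versus time-zero plates and DMSO controls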
YKL-5-124 = compound: C=CC(=O)Nc1ccc(C(=O)Nc2[nH]nc3c2CN(C(=O)N[C@H](CN(C)C)c2ccccc2)C3(C)C)cc1 [YKL-5-124]; experiment: as above
[2] = compound: CC(=O)c1c(C)c2cnc(Nc3ccc(N4CCNCC4)cn3)nc2n(C2CCCC2)c1=O; experiment: as above
Flavopiridol [3] = compound: T1, CN1CC[C@H](c2c(O)cc(O)c3c(=O)cc(-c4ccccc4Cl)oc23)[C@H](O)C1 [Flavopiridol]; experiment: as above
THZ531 = compound: CN(C)C/C=C/C(=O)Nc1ccc(C(=O)N2CCC[C@@H](Nc3ncc(Cl)c(-c4c[nH]c5ccccc45)n3)C2)cc1 [THZ531]; experiment: as above
LEE011/Ribociclib = compound: CN(C)C(=O)c1cc2cnc(Nc3ccc(N4CCNCC4)cn3)nc2n1C1CCCC1 [LEE011/Ribociclib]; experiment: as above
[4] = compound: CCN1CCN(Cc2ccc(Nc3ncc(F)c(-c4cc(F)c5nc(C)n(C(C)C)c5c4)n3)nc2)CC1; experiment: as above
BSJ-03-123 = compound: CC(=O)c1c(C)c2cnc(Nc3ccc(N4CCN(CCOCCOCCOCCNC(=O)COc5cccc6c5C(=O)N(C5CCC(=O)NC5=O)C6=O)CC4)cn3)nc2n(C2CCCC2)c1=O [BSJ-03-123]; experiment: as above
Olaparib/AZD2281 = compound: O=C(c1cc(Cc2n[nH]c(=O)c3ccccc23)ccc1F)N1CCN(C(=O)C2CC2)CC1 [Olaparib/AZD2281]
Paclitaxel = compound: CC(=O)O[C@H]1C(=O)[C@@]2(C)[C@H]([C@H](OC(=O)c3ccccc3)[C@]3(O)C[C@H](OC(=O)[C@H](O)[C@@H](NC(=O)c4ccccc4)c4ccccc4)C(C)=C1C3(C)C)[C@]1(OC(C)=O)CO[C@@H]1C[C@@H]2O [Paclitaxel]
BSJ-01-175 = compound: CN(C)C/C=C/C(=O)Nc1ccc(O[C@@H]2CCC[C@@H](Nc3ncc(Cl)c(-c4c[nH]c5ccccc45)n3)C2)cc1 [BSJ-01-175]
Flavopiridol [5] = compound: T1, Flavopiridol
Taselisib/GDC0032 = compound: Cc1nc(-c2cn3c(n2)-c2ccc(-c4cnn(C(C)(C)C(N)=O)c4)cc2OCC3)n(C(C)C)n1 [Taselisib/GDC0032]
Ipatasertib/GDC0068 = compound: CC(C)NC[C@@H](C(=O)N1CCN(c2ncnc3c2[C@H](C)C[C@H]3O)CC1)c1ccc(Cl)cc1 [Ipatasertib/GDC0068]
Luminespib/NVP-AUY922 = compound: CCNC(=O)c1noc(-c2cc(C(C)C)c(O)cc2O)c1-c1ccc(CN2CCOCC2)cc1 [Luminespib/NVP-AUY922]
ABT-737 = compound: CN(C)CC[C@H](CSc1ccccc1)Nc1ccc(S(=O)(=O)NC(=O)c2ccc(N3CCN(Cc4ccccc4-c4ccc(Cl)cc4)CC3)cc2)cc1[N+](=O)[O-] [ABT-737]
Doxorubicin = compound: COc1cccc2c1C(=O)c1c(O)c3c(c(O)c1C2=O)C[C@@](O)(C(=O)CO)C[C@@H]3O[C@H]1C[C@H](N)[C@H](O)[C@H](C)O1 [Doxorubicin]
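Wherever GR50, 72 h is given: breast cancer and non-malignant breast epithelial cell lines, Deep Dye Drop or Dye Drop imaging, nine half-log doses, GR normalized to time-zero plates and DMSO-only controls.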

HCC202
GR value ([1]; 0.0001 µM): 0.96 GR | GR value ([1]; 0.0003162 µM): 0.998 GR | GR value ([1]; 0.001 µM): 1.06 GR | GR value ([1]; 0.003162 µM): 1.03 GR | GR value ([1]; 0.01 µM): 0.784 GR | GR value ([1]; 0.03162 µM): 0.0982 GR | GR value ([1]; 0.1 µM): 0.14 GR | GR value ([1]; 0.3162 µM): 0.0849 GR | GR value ([1]; 1 µM): 0.0949 GR | GR value (YKL-5-124; 0.001 µM): 0.459 GR | GR value (YKL-5-124; 0.003162 µM): 0.432 GR | GR value (YKL-5-124; 0.01 µM): 0.377 GR | GR value (YKL-5-124; 0.03162 µM): 0.409 GR | GR value (YKL-5-124; 0.1 µM): 0.291 GR | GR value (YKL-5-124; 0.3162 µM): 0.228 GR | GR value (YKL-5-124; 1 µM): 0.337 GR | GR value (YKL-5-124; 3.162 µM): 0.288 GR | GR value (YKL-5-124; 10 µM): -0.165 GR | GR value ([2]; 0.0003162 µM): 0.895 GR | GR value ([2]; 0.001 µM): 1 GR | GR value ([2]; 0.003162 µM): 0.904 GR | GR value ([2]; 0.01 µM): 0.913 GR | GR value ([2]; 0.03162 µM): 0.889 GR | GR value ([2]; 0.1 µM): 0.798 GR | GR value ([2]; 0.3162 µM): 0.851 GR | GR value ([2]; 1 µM): 0.753 GR | GR value ([2]; 3.162 µM): 0.693 GR | GR value (Flavopiridol [3]; 0.0001 µM): 1.09 GR | GR value (Flavopiridol [3]; 0.0003162 µM): 1.05 GR | GR value (Flavopiridol [3]; 0.001 µM): 0.845 GR | GR value (Flavopiridol [3]; 0.003162 µM): 0.773 GR | GR value (Flavopiridol [3]; 0.01 µM): 0.976 GR | GR value (Flavopiridol [3]; 0.03162 µM): 0.893 GR | GR value (Flavopiridol [3]; 0.1 µM): 0.68 GR | GR value (Flavopiridol [3]; 0.3162 µM): 0.24 GR | GR value (Flavopiridol [3]; 1 µM): 0.0609 GR | GR value (THZ531; 0.0001 µM): 1.12 GR | GR value (THZ531; 0.0003162 µM): 0.893 GR | GR value (THZ531; 0.001 µM): 0.907 GR | GR value (THZ531; 0.003162 µM): 1.12 GR | GR value (THZ531; 0.01 µM): 0.883 GR | GR value (THZ531; 0.03162 µM): 0.809 GR | GR value (THZ531; 0.1 µM): 0.411 GR | GR value (THZ531; 0.3162 µM): 0.0512 GR | GR value (THZ531; 1 µM): 0.151 GR | GR value (LEE011/Ribociclib; 0.001 µM): 0.881 GR | GR value (LEE011/Ribociclib; 0.003162 µM): 1.03 GR | GR value (LEE011/Ribociclib; 0.01 µM): 1.03 GR | GR value (LEE011/Ribociclib; 0.03162 µM): 0.891 GR | GR value (LEE011/Ribociclib; 0.1 µM): 1.03 GR | GR value (LEE011/Ribociclib; 0.3162 µM): 0.883 GR | GR value (LEE011/Ribociclib; 1 µM): 0.833 GR | GR value (LEE011/Ribociclib; 3.162 µM): 0.813 GR | GR value (LEE011/Ribociclib; 10 µM): 0.829 GR | GR value ([4]; 0.001 µM): 0.929 GR | GR value ([4]; 0.003162 µM): 0.906 GR | GR value ([4]; 0.01 µM): 0.876 GR | GR value ([4]; 0.03162 µM): 0.855 GR | GR value ([4]; 0.1 µM): 0.809 GR | GR value ([4]; 0.3162 µM): 0.627 GR | GR value ([4]; 1 µM): 0.642 GR | GR value ([4]; 3.162 µM): 0.545 GR | GR value ([4]; 10 µM): 0.309 GR | GR value (BSJ-03-123; 0.001 µM): 0.979 GR | GR value (BSJ-03-123; 0.003162 µM): 0.927 GR | GR value (BSJ-03-123; 0.01 µM): 0.777 GR | GR value (BSJ-03-123; 0.03162 µM): 0.873 GR | GR value (BSJ-03-123; 0.1 µM): 0.889 GR | GR value (BSJ-03-123; 0.3162 µM): 0.829 GR | GR value (BSJ-03-123; 1 µM): 0.666 GR | GR value (BSJ-03-123; 3.162 µM): 0.768 GR | GR value (BSJ-03-123; 10 µM): 0.0981 GR | GR50, 72 h (Olaparib/AZD2281): > 10 µM | GR50, 72 h (Paclitaxel): 0.00379 µM | GR50, 72 h (BSJ-01-175): 0.0167 µM | GR50, 72 h (Flavopiridol [5]): 0.14 µM | GR50, 72 h (Taselisib/GDC0032): 0.00366 µM | GR50, 72 h (Ipatasertib/GDC0068): 3.36 µM | GR50, 72 h (Luminespib/NVP-AUY922): 0.0114 µM | GR50, 72 h (ABT-737): > 10 µM | GR50, 72 h (Doxorubicin): 0.0268 µM
